This note sets out measurements from EP3578378B1, “RECORDING MEDIUM AND METHOD FOR PRODUCING RECORDING MEDIUM” (CANON KABUSHIKI KAISHA, priority 2018, dated 2019).

In brackets after ≈: the same amount, converted by molar mass. Bounds are passed on as bounds.

A short description of this data set: Solubility of compound (B) in water at 20°C (10.0 g sample in 100 mL ion-exchange water, undissolved or recrystallized sample weighed). The data set is classed as physicochemical. The note with it: stirred at 80°C for one hour, cooled to 20°C, more than 10.0 g/100 mL if completely dissolved. The method, then:
The method for measuring this solubility is as follows.
First, 10.0 g of a sample to be measured is added to 100 mL of ion-exchange water, and the resulting mixture is stirred at 80°C for one hour to dissolve the sample. Next, the resulting solution in which the sample is dissolved is cooled to 20°C. The sample that remains without being dissolved or is recrystallized is collected, and the weight thereof is determined. […] Crosslinking Agent
As to `Oc1ccc(O)c(O)c1` [1,2,4-Trihydroxybenzene, 1,2,4-trihydroxybenzene, reference compound], the thermodynamic solubility at 1 h was > 100 mg/mL.

As for `NC(=O)/C=C/C(N)=O` [Fumaramide, fumaramide], the “Solubility in water at 20°C” value came to 0.2 g/100 mL.

In the case of `O=C(O)/C=C/C(=O)O` [Fumaric acid, fumaric acid], the “Solubility in water at 20°C” value worked out at 0.5 g/100 mL.

`O=C(O)c1cc(O)c(O)c(O)c1` [Gallic acid, gallic acid]: the “Solubility in water at 20°C” value came to 1.0 g/100 mL.

Regarding `O=C(O)c1cccc(C(=O)O)c1C(=O)O` [Hemimellitic acid, hemimellitic acid], the “Solubility in water at 20°C” value came to 2.0 g/100 mL.

For the molecule `O=C(O)/C=C\C(=O)O` [Maleic acid, maleic acid, reference compound], the “Solubility in water at 20°C” value was >10.0 g/100 mL.

Take `O=C(O)c1cc(C(=O)O)c(C(=O)O)cc1C(=O)O` [Pyromellitic acid, pyromellitic acid]: the thermodynamic solubility at 1 h was 15 mg/mL (≈ 59 mM).

As to `O=C(O)c1ccc(C(=O)O)c(C(=O)O)c1` [Trimellitic acid, trimellitic acid], the “Solubility in water at 20°C” value is recorded as 2.0 g/100 mL.

Take `NC(=O)c1cc(C(N)=O)cc(C(N)=O)c1` [Trimesamide, trimesamide]: the “Solubility in water at 20°C” value is 0.2 g/100 mL.

With `O=C(O)c1cc(C(=O)O)cc(C(=O)O)c1` [Trimesic acid, trimesic acid], the “Solubility in water at 20°C” value is listed as 0.5 g/100 mL.

As for `CC(=O)[O-].CC(=O)[O-].[O-2].[Zr+4]` [ZrO(C2H3O2)2, reference compound], the “Solubility in water at 20°C” value is on record as >10 g/100 mL.

With `[Cl-].[Cl-].[O]=[Zr+2]` [ZrOCl2, reference compound], the “Solubility in water at 20°C” value is listed as >10 g/100 mL.

Usually thermodynamic solubility stands for the concentration in solution at equilibrium with solid.
